# Patent publication US12285399B2, “Composition comprising bornyl acetate or pharmaceutically acceptable salt thereof as active ingredient for prevention or treatment of stress-related disorder” (UNIVERSITY-INDUSTRY COOPERATION GROUP OF KYUNG HEE …, priority 2019, dated 2025)
# Legend:
# Format in all cases: in vivo, C57BL/6NTac mice
# COX-2 protein = assay: Western blot of COX-2 protein in brain (hippocampus and amygdala) of CRS model; details: CRS+BA group
# Description: (§1) In order to confirm the antidepressant efficacy of bornyl acetate on the animal model of stress depression, an animal model of depression induced by chronic restrained stress (CRS) was prepared. Specifically, the animal model, 8-week-old male C57BL/6NTac mice after birth (Narabiotechnology, Korea; weight 22-24 g) had been stabilized for 1 week. A 50 ml conical tube (SPL Life sciences, Pocheon, Korea) was punched to make a hole, thereby making a restraint frame. The mice were put in the frame and restrained for 2 hours every day for 14 days. After restraint, the mice were allowed to freely ingest water and food in the home cage. The hippocampus and amygdala of the brain were excised. They were added to 200 μl of a protein lysis buffer (10 mM Tris, 0.5 mM EDTA, 0.25 M sucrose), and proteins were isolated using a grinder. The isolated protein was quantified by the Bradford method (Bio-rad, USA) using bovine serum albumin (BSA, Sigma, USA), and then 25 μg of the protein was separated by 10% sodium dodecyl sulfate-polyacrylamide gel electrophoresis (SDS-PAGE) and transferred to polyvinylidene difluoride (PVDF) membrane (Gendepot, UK). PVDF membranes were blocked in 5% skimmed milk (BD, USA) for 1 hour. […] Identification and quantitative analysis of proteins were analyzed using an imaging device ChemiDoc XRS+ (Bio-Rad). […]
# [1] = Body weight change in chronic restrained stress (CRS) depression model; details: CRS+BA group, oral, 14 days of restrained stress, 14th day
# Description: In order to confirm the antidepressant efficacy of bornyl acetate on the animal model of stress depression, an animal model of depression induced by chronic restrained stress (CRS) was prepared. Specifically, the animal model, 8-week-old male C57BL/6NTac mice after birth (Narabiotechnology, Korea; weight 22-24 g) had been stabilized for 1 week. A 50 ml conical tube (SPL Life sciences, Pocheon, Korea) was punched to make a hole, thereby making a restraint frame. The mice were put in the frame and restrained for 2 hours every day for 14 days. After restraint, the mice were allowed to freely ingest water and food in the home cage. Bornyl acetate (25, 50 and 100 mg/kg) of the present invention was dissolved in 0.1 M PBS, and the mixture was orally administered 1 hour before inducing restrained stress every day. Bornyl acetate was administered in a dose per individual of 100 μl. Specifically, the mice were weighed during or after applying restrained stress for 2 hours per day for 14 days, followed by a tail suspension test and forced swimming test were performed, and serum stress hormone (corticosterone) levels were measured (FIGS. 1A and 1B).
# c-Fos protein = assay: Western blot of c-Fos protein in brain (hippocampus and amygdala) of CRS model; details: CRS+BA group
# Description: as §1
# corticosterone = assay: Serum stress hormone (corticosterone) ELISA in CRS model; details: CRS+BA group, 14 days
# Description: In order to confirm the antidepressant efficacy of bornyl acetate on the animal model of stress depression, an animal model of depression induced by chronic restrained stress (CRS) was prepared. Specifically, the animal model, 8-week-old male C57BL/6NTac mice after birth (Narabiotechnology, Korea; weight 22-24 g) had been stabilized for 1 week. A 50 ml conical tube (SPL Life sciences, Pocheon, Korea) was punched to make a hole, thereby making a restraint frame. The mice were put in the frame and restrained for 2 hours every day for 14 days. After restraint, the mice were allowed to freely ingest water and food in the home cage. Bornyl acetate (25, 50 and 100 mg/kg) was orally administered 1 hour before inducing restrained stress every day. 14 days later, the mice were anesthetized, and the blood was collected. The blood was centrifuged at 5,000 rpm for 15 minutes to separate serum. In order to confirm the level of corticosterone, a stress hormone, in serum, an enzyme-linked immunosorbent assay (ELISA) kit (Enzo life sciences, Farmingdale, NY, USA) was used for analysis.
smiles,measurement,setting,value
"CC(=O)OC1CC2CCC1(C)C2(C)C (stereo not shown) [BA, bornyl acetate]",protein expression of COX-2 (CRS-induced increase),COX-2 protein; amygdala,significantly inhibited
same,protein expression of COX-2 (CRS-induced increase),COX-2 protein; hippocampus,significantly inhibited
same,body weight change,[1],no significant increase or decrease
same,protein expression of c-Fos (CRS-induced increase),c-Fos protein; amygdala,significantly inhibited
same,protein expression of c-Fos (CRS-induced increase),c-Fos protein; hippocampus,significantly inhibited
same,level of stress hormone (corticosterone) in serum,corticosterone; 50 mg/kg oral,2869.8 pg/mL
same,level of stress hormone (corticosterone) in serum,corticosterone; 100 mg/kg oral,2202.5 pg/mL
